Results as given in US9144594B2, “Cathepsin L mediated diseases and associated methods and products” (University of Miami, priority 2005, dated 2015).

System: LPS induced mouse proteinuria model
Assay: LPS induced mouse proteinuria model, protein in urine (prevention and reversal by dynamin gene delivery)
Format: in vivo
Details: 2xLPS
Description: Next, it was examined whether gene transfer of dynR725A and dynL356Q, G358V was able to protect from LPS induced changes of podocyte FP and thus proteinuria (FIGS. 6A-B); (Table 2B). […] Whereas the application of wildtype dynamin was unable to protect from LPS induced podocyte FP effacement (data not shown) and proteinuria (0.63 mg/ml after 24 hours, p<0.05 and 1.18 mg/ml after 48 hours, p<0.04); table 2B, the co-administration of R725A together with LPS completely abolished the development of proteinuria after 24 hours (0.20 mg/ml). Podocyte FPs remained normal at this timepoint (FIG. 6B). The decline of R725A expression in podocytes was then associated with the development of proteinuria (1.25 mg/ml, 48 h). At this time point, there was noticeable podocyte FP effacement. The application of the cathepsin L resistant dynamin mutant L356Q, G358V together with LPS conferred a partial protection from proteinuria (0.47 mg/ml, P<0.05). This protection was associated with normal appearing podocyte FP (FIG. 6C). Although this protection was not as strong as the one provided by dynR725A, it was prolonged and was still present even after the second dose of LPS ([…], P<0.04). This observation argues that lower expression levels of dynL356Q, G358V are required to protect from LPS induced FP effacement but the presence of dynR725A has the most powerful protection.
Another set of experiments was carried out to study whether dynR725A and dynL356Q, G358V are also useful once there is already established podocyte damage and proteinuria (reversal experiments), (FIGS. 6C, D); (Table 2C). First LPS was injected in mice at 0 and 24 hours and the course of urinary protein loss was documented. On the peak phase of proteinuria at 48 hours after the first LPS injection, either delivery solution (control), dynR725A or dynL356Q, G358V dynamin mutants were transferred and the morphology of podocyte FP was analyzed and the degree of proteinuria was determined 10 hours later when there was strong expression of the transferred gene in podocytes. […] A dramatic reformation of podocyte FPs was also observed (FIG. 6C). The same observation was true for L356Q, G358V (FIG. 6D) which was able to reduce proteinuria from 1.20 mg/ml to 0.71 mg/ml). From the in vitro data it was determined that R725A starts to self assemble into higher order structures in the LPS setting which render dynamin assembly domain protected from cathepsin L cleavage. […] In addition, dominant activating dynR725A proves useful because despite causing podocyte damage in wildtype mice, it can resist cathepsin L cleavage by self assembly in the LPS setting and have strong activity by impairment in its GTP hydrolysis.
If dynamin is a target of CatL, then dynL356Q and dynR725A, which are resistant to CatL cleavage, might protect kidneys from LPS. In control mice, two injections of LPS led to FP effacement (FIG. 21C) and a large increase in proteinuria (FIG. 21E, Con).
Next it was examined whether dynL356Q and dynR725A can reverse already established proteinuria. LPS was injected into mice at 0 and 24 hours. At the peak of proteinuria at 48 hours, mice were injected with dynWT, dynL356Q, or dynR725A, and the degree of proteinuria was analyzed 12 hours post injection. […] The rescue could be achieved with both podocin and CMV-driven protein expression.
All animal studies were approved by the MGH Subcommittee for Research Animal Care. C57BL6 mice were obtained from Jackson Laboratory (Bar Harbor, Me.). CatL−/− mice are in a pure C57BL6 background (Nakagawa et al., Science 280, 450-453 (1998)). LPS induced mouse proteinuria model was utilized as previously described (Reiser et al., J Clin Invest 113, 1390-1397 (2004)). Rat PAN nephrosis model was induced by a single intravenous injection of PAN (180 mg/kg body wt; Sigma-Aldrich, St. Louis, Mo.) (Kim et al., Am J Physiol Renal Physiol 286, F922-935 (2004)). […]

Molecule: WT (CMV): CMV promoter-driven wild type dyn1 vector, gene delivery
- Protein in the urine (Table 5 Prevention, t = 0): 0.28 ± 0.07 mg/mL
- Protein in the urine (Table 5 Prevention, t = 24 h): 0.63 ± 0.12 (1.3.2 × 10^−3) mg/ml
- Protein in the urine (Table 5 Prevention, t = 48 h): 1.18 ± 0.23 (7.6 × 10^−5) mg/ml
- Protein in the urine (Table 5 Reversal, t = 0): 0.30 ± 0.11 mg/mL
- Protein in the urine (Table 5 Reversal, t = 48 h): 0.17 ± 0.20 mg/mL
- Protein in the urine (Table 5 Reversal, t = 58 h): 1.10 ± 0.18 mg/mL

B1: R725A (CMV): CMV promoter-driven dynR725A vector, gene delivery (protein, UniProt Q05193 1-864, looked up, variant R725A)
Dynamin-1: MGNRGMEDLIPLVNRLQDAFSAIGQNADLDLPQIAVVGGQSAGKSSVLENFVGRDFLPRGSGIVTRRPLVLQLVNATTEYAEFLHCKGKKFTDFEEVRLEIEAETDRVTGTNKGISPVPINLRVYSPHVLNLTLVDLPGMTKVPVGDQPPDIEFQIRDMLMQFVTKENCLILAVSPANSDLANSDALKVAKEVDPQGQRTIGVITKLDLMDEGTDARDVLENKLLPLRRGYIGVVNRSQKDIDGKKDITAALAAERKFFLSHPSYRHLADRMGTPYLQKVLNQQLTNHIRDTLPGLRNKLQSQLLSIEKEVEEYKNFRPDDPARKTKALLQMVQQFAVDFEKRIEGSGDQIDTYELSGGARINRIFHERFPFELVKMEFDEKELRREISYAIKNIHGIRTGLFTPDMAFETIVKKQVKKIREPCLKCVDMVISELISTVRQCTKKLQQYPRLREEMERIVTTHIREREGRTKEQVMLLIDIELAYMNTNHEDFIGFANAQQRSNQMNKKKTSGNQDEILVIRKGWLTINNIGIMKGGSKEYWFVLTAENLSWYKDDEEKEKKYMLSVDNLKLRDVEKGFMSSKHIFALFNTEQRNVYKDYRQLELACETQEEVDSWKASFLRAGVYPERVGDKEKASETEENGSDSFMHSMDPQLERQVETIRNLVDSYMAIVNKTVRDLMPKTIMHLMINNTKEFIFSELLANLYSCGDQNTLMEESAEQAQRADEMLRMYHALKEALSIIGDINTTTVSTPMPPPVDDSWLQVQSVPAGRRSPTSSPTPQRRAPAVPPARPGSRGPAPGPPPAGSALGGAPPVPSRPGASPDPFGPPPQVPSRPNRAPPGVPSRSGQASPSRPESPRPPFDL
modifications: expressed from CMV vector
notes: CMV promoter-driven dynR725A vector, gene delivery
- Protein in the urine (Table 5 Prevention, t = 0): 0.17 ± 0.08 mg/mL
- Protein in the urine (Table 5 Prevention, t = 24 h): 0.20 ± 0.05 mg/mL
- Protein in the urine (Table 5 Prevention, t = 48 h): 1.25 ± 0.29 (5.0 × 10^−6) mg/ml
- Protein in the urine (Table 5 Reversal, t = 0): 0.28 ± 0.10 mg/mL
- Protein in the urine (Table 5 Reversal, t = 48 h): 1.15 ± 0.17 mg/mL
- Protein in the urine (Table 5 Reversal, t = 58 h): 0.38 ± 0.23 (1.8 × 10^−3) mg/ml
